Consider one compound from patent US5670619A, “Bradykinin-antagonists for the treatment of acute pancreatitis” (Hoechst Aktiengesellschaft, priority 1991, dated 1997).

Holding throughout (type): in vivo
For test [1], the system named is caerulein-induced increase of water and Evans blue content in the pancreas. Kind of test: Comparison of peptide A with the Berg et al. antagonist, given after onset of caerulein infusion in rats. The settings on record: rat; given 10 minutes after the outset of the caerulein infusion; Berg antagonist in a dose 10 times higher than peptide A. As to the method:
Additionally D-Arg^0 -HYP^3 -Thi^5.8 D-Phe^7 -BK disclosed by Berg et al. (see page 1) has been tested in comparision with the peptide A. Both antagonists were given in two groups of rats under identical conditions 10 minutes after the outset of the infusion of caerulein.

The test system of test [2] is bradykinin (injected, or split off from kininogen by kallikrein). As to the kind of experiment: Inhibition of the fall in blood pressure evoked by bradykinin and kallikrein in anaesthetized rabbits. The settings on record: anaesthetized rabbit, peptide 3 nmol/kg i.v. As to the method:
Methods: Rabbits of either sex (3.5-5.0 kg) were anaesthetized with pentobarbitone sodium (35 mg/kg i.v.). Arterial blood pressure was monitored in a carotid artery using a Statham pressure transducer. I.v. injections of bradykinin (1 to 10 nmol/kg) or kallikrein (1 to 10 U/kg) were made into a jugular vein at intervals of 10 min. A peptide of the formula I (3 nmol/kg) was given i.v. and the injections of bradykinin or kallikrein were then repeated.

For test [3], the system named is caerulein-induced pancreatic oedema. Kind of test: Pancreatic oedema (water and Evans blue content of pancreas) in caerulein-induced pancreatitis in rats. As to conditions: rat; for Pancreatic oedema: Evans blue / Pancreatic oedema: water: A s.c. 100 nmol/kg, mean ± SEM, n = 10. The text has this: General methods: To induce experimental pancreatitis in animals, a number of procedures have been used including ligation of the pancreatic duct, injection of bile salts into the pancreatic duct, infusion of oleic acid, or infusion of the amphibian cholecystokinin analogue, caerulein. The latter procedure produces a hyperstimulation of the exocrine function of the pancreas and leads to morphological changes that share many features also seen in human acute pancreatitis (Willemer S., Bialek R., Kohler H. Adler G.; "Caerulein-induced acute pancreatitis in rats: changes in glycoprotein-composition of subcellular membrane systems in acinar cells;" Histochemistry 1990; 95; 87-96). Caerulein-induced pancreatitis in rats was used for the following experiments.
(§1) Method: Female Sprague-Dawley rats (260±30 g) were anaesthetized with pentobarbitone sodium (40 mg/kg, i.p.) and phenobarbitone sodium (160 mg/kg, i,p.). […] 10 min later, the animals were given a s.c. injection of a peptide of the formula I (100 nmol/kg) or of a corresponding volume (0.5 ml/kg) of a 154 mM sodium chloride solution. The systemic arterial blood pressure was monitored in a carotid artery using a Statham pressure transducer. A jugular vein was cannulated to allow the infusion of either caerulein (4 nmol/kg/h) or of physiological saline (0.034 ml/min). The infusion was started 30 min after the s.c. injection of a peptide of the formula I or saline, and lasted for 2 h. At the end of the experiment the animals were killed by decapitation; the blood was collected for the determination of serum amylase and lipase.
Method: Quantification of the pancreatic oedema was achieved by measuring the dry weight of pancreas and the accumulation of plasma proteins in pancreas. At the end of the infusions (see blood pressure experiments), the blood was collected for measuring enzymes in serum. The pancreas was excised and weighed. After drying the tissue, the difference between wet and dry weight, in relation to dry weight, was used as a measure for the water content of the tissue. 5 mg/kg of Evans blue, which quantitatively binds to serum albumin (Rawson R. A.: "The binding of T-1824 and structurally related diazo dyes by plasma proteins", Amer. J. Physiol. 1943, 138, 708-717) was injected i.v. immediately before the start of the i.v. infusion of caerulein or physiological saline. Thereafter the pancreatic tissue was used to measure Evans blue concentration photometrically (Gamse R., Holzer P., Lembeck F.: "Decrease of substance P in primary afferent neurones and impairment of neurogenic plasma extravasation by capsaicin", Br. J. Pharmacol. 1980, 68, 207-213; Saria A., Lundberg J. M.: "Evans blue fluorescence: quantitative and morphological evaluation of vascular permeability in animal tissues", J. Neurosci. Meth. 1983, 8, 41-49). Control animals were treated with corresponding volumes of saline instead of a peptide of the formula I or caerulein. Plasma extravasation was quantified as content of water and Evans blue in the pancreas.

For test [4], the system named is pancreatic enzymes in serum. As to the kind of experiment: Serum amylase and lipase activities in caerulein-induced pancreatitis in rats. The settings on record: rat, A s.c., no CRL i.v., n = 6. As to the method: as §1
Methods: Serum amylase was determined using a kinetic colour test with 2-chlor-4-nitrophenyl-D-maltoheptoside (Amylase test kit Roche, F.R.G.). Serum lipase was measured by the reduction of the turbidity due to cleavage of triolein to monoglyceride and oleic acid (Monotest Lipase, Boehringer Mannheim, F.R.G.). The detection limits for amylase and lipase were 11 U/I and 16 U/l, respectively. Control animals were treated with corresponding volumes of saline instead of a peptide of the formula I.

For the compound `N=C(N)NCCC[C@@H](N)C(=O)N[C@@H](CCCNC(=N)N)C(=O)N1CCC[C@H]1C(=O)N1C[C@H](O)C[C@H]1C(=O)NCC(=O)N[C@@H](Cc1cccs1)C(=O)N[C@@H](CO)C(=O)N1Cc2ccccc2C[C@@H]1C(=O)N1[C@H](C(=O)N[C@@H](CCCNC(=N)N)C(=O)O)C[C@@H]2CCCC[C@@H]21` [peptide A, H-D-Arg-Arg-Pro-Hyp-Gly-Thi-Ser-D-Tic-Oic-Arg-OH], in test [1], the “increase of Evans blue content in the pancreas” value was “completely inhibited” and the “increase of water content in the pancreas” value was “completely inhibited”. The “fall in blood pressure evoked by bradykinin” value in test [2] (bradykinin 1 to 10 nmol/kg i.v.) was “completely blocked”. In test [2] (kallikrein 1 to 10 U/kg i.v.), the “fall in blood pressure evoked by kallikrein” value is listed as “completely blocked”. Besides, in test [3] (CRL i.v.), the “Pancreatic oedema: Evans blue” value was 18.21 ± 4.24 μg/g dry wgt and the “Pancreatic oedema: water” value was 3.11 ± 0.33 g/g dry wgt. In test [3] (no CRL i.v.), the “Pancreatic oedema: Evans blue” value was determined as 20.31 ± 5.80 μg/g dry wgt and the “Pancreatic oedema: water” value turned out to be 2.62 ± 0.23 g/g dry wgt. For the same compound, the “CRL induced pancreatic oedema” value in test [3] (result in words) is on record as “completely inhibited”. Also, in test [4] (mean ± SEM), the “Serum Amylase activity” value is recorded as 3.19 ± 0.21 U/ml. In addition, in test [4] (nn = not detectable), the “Serum Lipase activity” value was “nn”.
